Results on 86 compounds are retold here after a melting point compilation (Tetko et al.; mined from patent text by program, amines drawn as free bases though some values may be those of a salt).

As a reminder, the melting point is the temperature of the solid-liquid transition. As for `Cc1ccc(C(=O)N[C@H](Cc2ccc(C(F)(F)F)cc2)[C@@H](O)c2ccc(F)cc2)c2ccccc12` (racemic), the melting point lay in the range of 198 to 199 °C.

As to `CCN(CC)C(=O)Nc1ccc(S(=O)(=O)n2c(=O)n(-c3ccccc3Cl)c3cc(Cl)ccc32)cc1`, the melting point was 222 °C.

Compound `O=c1[nH][nH]c(=O)c2c(O)c3ccc(C(F)(F)F)cc3nc12` yielded a melting point of 170 to 172 °C.

In turn, `COC(=O)[C@H]1Cc2ccc(C)cc2C(=O)[C@H](c2ccccc2)S1` (relative stereo) showed a melting point of 136 to 137 °C.

`CCOC(=O)c1cc2c(OC[C@@H](O)CN3CCC(c4ccc5ccccc5c4)CC3)cccc2[nH]1` showed a melting point of 115 to 117 °C.

On to `Cc1nnc2n1-c1ccccc1CS2`, for which the melting point was in the range of 142 to 144 °C.

As for `Clc1ccc(-c2cc(C3CC3)nc(Cl)n2)cc1`, the melting point lay within 70 to 72 °C.

Turning to `CC1(C(O)(Cc2ccc(F)cc2)Cn2cncn2)CC1(F)F` (stereo unspecified), the melting point was determined as 114 °C.

In the case of `O=C1NC(=O)C(=Cc2ccc(OCCN3c4ccccc4Sc4ccccc43)cc2)S1`, the melting point lay within 168 to 170 °C.

With `CCCCOC(=O)[C@H](Cc1ccc(O)cc1)NC(=O)C1(NC(=O)C2(S)CCCC2)CCCC1`, the melting point was 106 to 107 °C.

`O=S(=O)(c1ccccc1)n1ncc2c(OCCCl)cccc21` gave a melting point of 102 to 104 °C.

Compound `CCNC(=O)c1ccc(N2CCN(Cc3cnc4c(c3)[nH]c(=O)n3cccc43)CC2)c(C)c1` had a melting point of 255 to 258 °C.

`CCC(CC)Nc1c(N)cc(C)c(C)c1[N+](=O)[O-]`: the melting point lay within 80 to 82 °C.

Take `CC(C)C(=O)c1cn(-c2c(Cl)cc(C(F)(F)F)cc2Cl)nc1C#N`: the melting point was in the range of 168 to 169 °C.

Take `CCCN(C(=O)COc1c(C)cccc1C)C1CCc2c(ccc(O)c2O)C1` (stereo unspecified): the melting point was in the range of 153 to 155 °C.

For `Cc1ccc(-c2nnc(N3CCC(OC(=O)Oc4ccccc4)CC3)nc2-c2ccc(C)cc2)cc1`, the melting point lay in the range of 142 to 143 °C.

`CCOP(=O)(OCC)Oc1cc(C(F)(F)F)nc(N(C)C)n1` yielded a melting point of 22 to 24 °C.

In the case of `OCCOCCNc1ncncc1Cc1ccccc1`, the melting point fell in the range of 86 to 87 °C.

Turning to `CCN(CC)CCCNC(=S)N(CCS(=O)(=O)c1ccccc1)C(C)C`, the melting point was 120 to 121 °C.

As for `N#Cc1ccc(NC(=O)C(F)(F)C(F)(F)C(F)(F)F)cc1`, the melting point fell in the range of 116 to 118 °C.

`O=C(O)c1cccc2[nH]c(=O)c(-c3csc(-c4ccncc4)n3)cc12` registered a melting point greater than 250 °C.

`CCCCn1c(=O)c2nn(S(=O)(=O)Cc3ccccc3)cc2n(CCCC)c1=O` showed a melting point of 90 to 93 °C.

For the compound `CN1OCCN(c2ccc([N+](=O)[O-])c(C(F)(F)F)c2)C1=O`, the melting point lay within 104 to 105 °C.

As to `O=C1CCCc2nc3cc(Cl)ccc3c(NCc3ccc(F)cc3)c21`, the melting point fell in the range of 156 to 158 °C.

For the compound `CCCc1nc2c(N)nc3cc(OCc4ccc(F)cc4)ccc3c2n1CC(C)C`, the melting point fell in the range of 198 to 200 °C.

In turn, `CCCCc1cc2ccccc2c(Oc2ccc(/C=C/C(=O)O)cc2)c1-c1ccc(OC)cc1` came in with a melting point of 186 to 187 °C.

`CCc1nc(N)nc(N)c1N1CCNCC1`: the melting point lay in the range of 204 to 207 °C.

In the case of `C#CCc1c(C)nc2c(NCc3c(C)cccc3NC(=O)CO)cccn12`, the melting point was 195 to 196 °C.

`NS(=O)(=O)c1ccc(-n2nc(C(F)F)cc2-c2cnccn2)cc1` showed a melting point of 191 to 194 °C.

In turn, `CN(C)CCCNc1nc2cc(Cl)c(Cl)cc2nc1-c1ccccn1` yielded a melting point of 59 to 61 °C.

`CSc1nc(O)c2c(n1)CCCS2` showed a melting point of 248 °C.

In turn, `CCn1c(C)nc2cc(S(C)(=O)=O)c(Cl)c([N+](=O)[O-])c21` showed a melting point of 75 to 79 °C.

Regarding `C=CC(=O)Nc1cccc2c1sc1c(Nc3cccc(Br)c3)c(C#N)cnc12`, the melting point was in the range of 286 to 287 °C.

The compound `CCC(CC)(CC(=O)Nc1cccc(/C=C/c2cccc(CCCCCCc3ccc(OCCC(C)C)cc3)n2)c1)C(=O)O` had a melting point of 136 to 137 °C.

In turn, `CN(C)C(=N[N+](=O)[O-])N(Cc1cnc(Cl)s1)S(C)(=O)=O` showed a melting point of 82 to 86 °C.

With `CC(=O)N1CCN=C1Nc1cc(C(C)C)nn1C(C)C`, the melting point was in the range of 139 to 140 °C.

With `Nc1cc(-c2ccccc2)c(=O)n2c1-c1sccc1CC2`, the melting point lay within 180 to 182 °C.

`Cc1cc(OCC(=O)c2ccc(C(C)C)cc2)c(C)c(C)c1Br` registered a melting point of 71 to 72 °C.

In the case of `Cc1cc(Oc2ccc(S(C)(=O)=O)nc2)ccc1[N+](=O)[O-]`, the melting point was in the range of 138 to 140 °C.

The compound `Clc1ccc(N2CCN(Cc3cn4cc(Cl)ccc4n3)CC2)cc1` gave a melting point of 145 to 146 °C.

`Ic1ccc(CCN2CCOCC2)cc1` gave a melting point of 64 to 67 °C.

With `Cc1cc(C2=NN=C(C(N)=O)Cc3cc4c(cc32)OCO4)ccc1[N+](=O)[O-]`, the melting point lay in the range of 266 to 268 °C.

Compound `S=c1c2c(ncn2Cc2cccnc2)c2cccnc2n1-c1ccccc1` returned a melting point of 222 to 224 °C.

The compound `COC(=O)c1ccc(Cc2c(Cl)n(C)c3cc(Cl)c(CC(C)NC(=O)N(C)C)cc23)c(OC)c1` (stereo unspecified) gave a melting point of 175 to 176 °C.

Compound `C=CS(=O)(=O)CCC(F)(F)C(F)(F)C(F)(F)C(F)(F)C(F)(F)C(F)(F)C(F)(F)C(F)(F)F` yielded a melting point of 96 to 97 °C.

As for `Cc1cccc(Cl)c1C1N=C(N(C)C)Cc2ccccc21` (stereo unspecified), the melting point lay in the range of 153 to 154 °C.

The compound `COC(=O)[C@H](Cc1ccc(O)cc1)NC(=O)Cc1ccccc1` returned a melting point of 101 °C.

As to `N#Cc1ccc(N2CCc3nc4cc(Cl)ccc4c(Cl)c3C2)nc1`, the melting point lay within 171 to 173 °C.

Turning to `Cc1ccc(C(Cl)=NOS(C)(=O)=O)cc1`, the melting point lay in the range of 100 to 102 °C.

`CCCn1c(-c2ccccc2)cc(=O)c(C(=O)O)c1-c1ccccc1` returned a melting point of 166 to 167 °C.

`CC(CN1C(=O)C2(COc3cc4c(cc32)CCO4)c2ccccc21)OCc1ccc(F)cc1` (stereo unspecified) gave a melting point of 55 to 60 °C.

The compound `COC(=O)C(C)(C)S(=O)(=O)N1CCC(c2ccc(Br)c(C)c2)CC1` registered a melting point of 103 to 106 °C.

`Cc1ccccc1NC(=O)C1Sc2ccccc2N(C)C1=O` (stereo unspecified) had a melting point of 187 to 188 °C.

Compound `Nc1csc2c([N+](=O)[O-])cccc12` gave a melting point of 188 to 191 °C.

`CC(C)(C)c1cccc(S(=O)(=O)n2c(Cc3ccc(C(=O)NS(=O)(=O)c4ccccc4)cc3)cc3cc(C(F)(F)F)ccc32)c1` registered a melting point of 99 °C.

Take `O=C(OCCN1CCN(c2ccc(Cl)cc2)CC1)c1sccc1Nc1ccnc2c(C(F)(F)F)cccc12`: the melting point stood at 155 °C.

In turn, `CCCCc1nnc(SCc2ccc(Cl)cc2)n1Cc1ccc(OC(C(=O)O)c2ccccc2Cl)cc1` (stereo unspecified) had a melting point of 100 to 102 °C.

`CCN(CC)c1ccc(/C=C/C(=O)CC(=O)/C=C/c2ccc3cc[nH]c3c2)c(OC)c1` displayed a melting point of 61 to 65 °C.

In the case of `CN1CC(CCCl)Oc2ccc(Cl)cc2C1=S` (stereo unspecified), the melting point lay in the range of 102 to 104 °C.

As to `Fc1ccc2c(c1)Cc1cc(F)ccc1O2`, the melting point lay in the range of 117 to 118 °C.

`CCCOc1ccccc1Nc1ncc(C(=O)OCC)c(=O)[nH]1` registered a melting point of 198 to 200 °C.

Turning to `O=S(=O)(Nc1ccc2c(OCc3coc(-c4ccc(Br)cc4)n3)cccc2c1)C(F)(F)F`, the melting point was 205 to 207 °C.

The compound `OCC1CCC(O)C1O` (stereo unspecified) gave a melting point of 157 to 159 °C.

The compound `COc1ccc(CCNc2nc(O)c(C(=O)c3ccco3)c(O)n2)cc1OC` yielded a melting point greater than 250 °C.

`Nc1nc(NCCN2CCOCC2)nc(-c2cc(Cl)ccc2Cl)n1` came in with a melting point of 159 to 161 °C.

On to `CC(=O)O/N=C(\C)[C@H]1CC[C@H]2[C@@H]3CCC4=CC(=O)CC[C@]4(C)[C@H]3CC[C@]12C`, for which the melting point fell in the range of 158 to 160 °C.

`CCCCCCCCCCCCCCCCNc1ccc(C(=O)NCC(=O)OCC)cc1` had a melting point of 97.5 to 99.5 °C.

For the compound `CC(C)(C)OC(=O)C[C@@H]1C[C@@H](COc2ccc(-c3ccc(C#N)c(F)c3)cc2)NC1=O`, the melting point lay within 142 to 144 °C.

Turning to `COc1cc(N(CC(N)=O)S(=O)(=O)c2ccc(OC)c(OC)c2)c(C(O)c2c(F)cccc2F)cc1C` (stereo unspecified), the melting point was 204 °C.

`CC(C)C(O)CN1N=C(c2ccc(Cl)cc2)CCC1=O` (stereo unspecified) gave a melting point of 90 to 92 °C.

In turn, `O=C(CCCl)c1cc2c3c(c1)CCN3C(=O)CC2` came in with a melting point of 154 to 155 °C.

Regarding `O=C(c1ccc(Cl)cc1)c1c(Cl)cc2n1CCC2C(=O)O` (stereo unspecified), the melting point stood at 197 °C.

In turn, `CCOC(=O)C1=C(C(F)(F)F)Nc2n[nH]c(C)c2C1c1ccccc1Cl` (stereo unspecified) came in with a melting point of 165 to 168 °C.

With `Cc1nc[nH]c1CSCCNC(=N)NCC(C)SCc1[nH]cnc1C` (stereo unspecified), the melting point lay in the range of 173 to 175 °C.

`CC(C)(C)OC(=O)C[C@H](NC(=O)CNC(=O)c1csc(NC(=O)NCc2ccccc2)n1)C(=O)OC(C)(C)C` displayed a melting point of 111 to 114 °C.

The compound `COc1ccc(CN(C)CCc2ccc(NC(=O)c3cccc4c(=O)c5cccc(SC)c5[nH]c34)cc2)cc1OC` displayed a melting point of 190 °C.

Compound `COc1ccc(Cl)c(S(=O)(=O)NC(=O)c2cn3cc(C(F)(F)F)cc(Br)c3n2)c1` had a melting point of 191 to 192 °C.

For the compound `CC1=NC(NC(=O)Nc2cccc(Cl)c2)C(=O)N(CC(=O)N2CC3CCC(CC3)C2)c2c(C)cccc21` (stereo unspecified), the melting point lay within 181 to 185 °C.

On to `COc1cc(CC(N)=O)c(CCc2ccc(O)c(OCc3ccccc3)c2)c(OC)c1OC`, for which the melting point is 139 to 141 °C.

As to `Cc1cc(OCc2ccccc2)cc(C)c1NC(=O)CN1CCN2C(C1)C(=O)NC2(C)C` (stereo unspecified), the melting point turned out to be 224 °C.

As for `CC(C)(C)OC(=O)C(Cc1ccccc1)NC(=O)c1ccc2c(Cl)cnc(Cl)c2c1` (racemic), the melting point is 156 to 157 °C.

As to `O=c1ccc2c(C(F)(F)F)cc(C(F)(F)F)nc2[nH]1`, the melting point was in the range of 182 to 184 °C.

`COc1cc(O)c2c(c1)CCC1C2CCC2(C)C(=O)CCC12` (stereo unspecified) returned a melting point of 220 to 222 °C.

In turn, `CCC(CC)n1c(=O)n(C)c2c(Oc3c(C)cc(C)cc3C)nc(C)cc21` came in with a melting point of 152 to 154 °C.

For the compound `CCCC(=O)c1ccc(OCCCCC(=O)O)c(Cl)c1Cl`, the melting point was 102 to 103 °C.

For the compound `Cc1cc(=O)[nH]nc1-c1ccc(-c2n[nH]c(=O)cc2C)cc1`, the melting point was greater than 250 °C.
